Consider 15 compounds from ChEMBL document CHEMBL1126418, “Synthesis of chemically stable 9-substituted carbacyclin derivatives and their biological use” (Bioorg Med Chem Lett, 1992).

For assay [1], the species on record is Homo sapiens. The assay can be described thus: The compound was tested for inhibition of blood platelet aggregation induced by ADP; 100-250*10e-9. It is filed as functional, organism-based.
A short description of assay [2]: Evaluated for the relative potency to that of Iloprost. It is filed as functional.
Assay [3] has as its target Prostacyclin receptor (Homo sapiens) (UniProt P43119). Put plainly: Affinity for Prostaglandin I2 receptor. Also noted: unit not given here.
Assay [4] is filed under the species Homo sapiens. The assay can be described thus: The compound was tested for inhibition of blood platelet aggregation induced by ADP. It is filed as functional, organism-based.
The species named for assay [5] is Homo sapiens. The assay can be described thus: Compound was tested for inhibition of blood platelet aggregation induced by ADP; 0.2-0.5*10e-9. It is filed as functional, organism-based.
The species named for assay [6] is Homo sapiens. The assay can be described thus: The compound was tested for inhibition of blood platelet aggregation induced by ADP; 0.5-2.5*10e-9. It is filed as functional, organism-based.

Chain of Prostacyclin receptor (Homo sapiens) (P43119 whole entry): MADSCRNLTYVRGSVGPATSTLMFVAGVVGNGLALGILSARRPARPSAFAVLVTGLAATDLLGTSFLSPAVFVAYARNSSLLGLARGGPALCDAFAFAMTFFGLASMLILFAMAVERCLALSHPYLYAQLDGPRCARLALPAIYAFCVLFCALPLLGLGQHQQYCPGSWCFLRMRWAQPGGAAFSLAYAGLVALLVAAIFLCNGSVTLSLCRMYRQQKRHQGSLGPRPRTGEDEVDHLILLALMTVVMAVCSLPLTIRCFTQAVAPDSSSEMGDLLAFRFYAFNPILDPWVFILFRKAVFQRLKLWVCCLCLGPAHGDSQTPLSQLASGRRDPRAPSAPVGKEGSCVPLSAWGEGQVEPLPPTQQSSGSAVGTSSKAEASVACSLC

In general, IC50 refers to the concentration that gives 50% inhibition. In the case of `CC#CCC(C)[C@H](O)/C=C/[C@H]1[C@H](O)C[C@]2(C#CCCCBr)C/C(=C/CCCC(=O)O)C[C@H]12` (some centres undefined), half-maximal inhibition in the assay filed under Homo sapiens [1] (IC50) required 100 nM. In assay [2], this compound gave a Relative potency of 0.001.
In assay [3], `CC#CCC(C)[C@H](O)/C=C/[C@H]1[C@H](O)C[C@]2(C#CCCCN=[N+]=[N-])C/C(=C\CCCC(=O)O)C[C@H]12` (some centres undefined) displayed a KF of 6. The same compound came in with a Relative potency in assay [2] of 0.1. For the same compound, it took 20 nM to reach half-maximal inhibition in the assay filed under Homo sapiens [4] (IC50).
On the same counts, the results for `CC#CCC(C)[C@H](O)/C=C/[C@H]1[C@H](O)C[C@]2(C#CCCCO)C/C(=C\CCCC(=O)O)C[C@H]12` (some centres undefined) are 25, 0.2 and 10 nM.
In the case of `CC#CCC(C)[C@H](O)/C=C/[C@H]1[C@H](O)C[C@]2(C#CCCCN=[N+]=[N-])C/C(=C/CCCC(=O)O)C[C@H]12` (some centres undefined), the KF in assay [3] is 80. For the same compound, in assay [2], the Relative potency was 0.003. The same compound gave an IC50 in the assay listed under Homo sapiens [4] of 850 nM.
The compound `CC#CCC(C)[C@H](O)/C=C/[C@H]1[C@H](O)C[C@]2(C#CCCC(=O)O)C/C(=C\CCCC(=O)O)C[C@H]12` (some centres undefined) displayed a KF in assay [3] of 200. The compound also gave a Relative potency in assay [2] of 0.0002. The same compound displayed an IC50 in the assay listed under Homo sapiens [4] of 2000 nM.
On to `CC#CCC(C)[C@H](O)/C=C/[C@H]1[C@H](O)C[C@]2(C#CCCCI)C/C(=C/CCCC(=O)O)C[C@H]12` (some centres undefined), for which the KF in assay [3] was greater than 100. In assay [2], this compound displayed a Relative potency of 0.001. Moreover, in the assay listed under Homo sapiens [4], the IC50 amounted to 200 nM.
In the same order, the values of `CC#CCC(C)[C@H](O)/C=C/[C@H]1[C@H](O)C[C@]2(CCCCCO)C/C(=C\CCCC(=O)O)C[C@H]12` (some centres undefined) are 130, 0.0006 and 7000 nM.
On the same counts, the results for `CC#CCC(C)[C@H](O)/C=C/[C@H]1[C@H](O)C[C@]2(CCCCCN=[N+]=[N-])C/C(=C\CCCC(=O)O)C[C@H]12` (some centres undefined) are 29, 0.0005 and 500 nM.
The compound `CC#CCC(C)[C@H](O)/C=C/[C@@H]1[C@H]2CC(=CCCCC(=O)O)C[C@H]2C[C@H]1O` (some centres undefined) [ILOPROST] returned a KF in assay [3] of 11. The same compound showed a Relative potency in assay [2] of 0.0001. Further, the midpoint of inhibition in the assay listed under Homo sapiens [4], the IC50, lay at 4400 nM.
Turning to `CC#CCC(C)[C@H](O)/C=C/[C@H]1[C@H](O)C[C@]2(CCC#CCCCO)C/C(=C\CCCC(=O)O)C[C@H]12` (some centres undefined), the KF in assay [3] stood at 180. The same compound came in with a Relative potency in assay [2] of 0.002. In the assay listed under Homo sapiens [4], this compound gave an IC50 of 400 nM.
In the same order, the values of `CC#CCC(C)[C@H](O)/C=C/[C@H]1[C@H](O)C[C@]2(C#CCCCI)C/C(=C\CCCC(=O)O)C[C@H]12` (some centres undefined) are 5.6, 1 and 5 nM.
In turn, `CC#CCC(C)[C@H](O)/C=C/[C@@H]1[C@H]2C/C(=C/CCCC(=O)O)C[C@H]2C[C@H]1O` (stereo in doubt; 1) [ILOPROST] gave a KF in assay [3] of 1. This compound came in with a Relative potency in assay [2] of 1. In the assay filed under Homo sapiens [5], this compound yielded an IC50 of 0.2 nM.
Take `CC#CCC(C)[C@H](O)/C=C/[C@H]1[C@H](O)C[C@]2(CCCCCO)C/C(=C/CCCC(=O)O)C[C@H]12` (some centres undefined): the KF result in assay [3] was “n.k”. Besides, the Relative potency in assay [2] came to 4e-05. This compound displayed an IC50 in the assay listed under Homo sapiens [4] of 11000 nM.
On the same counts, the results for `CC#CCC(C)[C@H](O)/C=C/[C@H]1[C@H](O)C[C@]2(C#CCCCO)C/C(=C/CCCC(=O)O)C[C@H]12` (some centres undefined) are 300, 0.004 and 200 nM.
In turn, `CC#CCC(C)[C@H](O)/C=C/[C@H]1[C@H](O)C[C@]2(C#CCCCBr)C/C(=C\CCCC(=O)O)C[C@H]12` (some centres undefined) gave a KF in assay [3] of 3. In assay [2], this compound gave a Relative potency of 1. Also, in the assay filed under Homo sapiens [6], the concentration for half-maximal inhibition (IC50) is 0.5 nM.
